Data published in US20080280953A1, “Agents Used for the Treatment of Seeds” (Bayer Cropscience AG, priority 2004, published 2008).

How the values were obtained:
Type in all cases: in vivo
[1] = system: cotton aphid (Aphis gossypii); experiment: Aphis gossypii test (soil application); conditions: 4 ppm in soil, cotton plant
Protocol: (§1) To prepare a suitable active compound preparation 1 part by weight of the active compound is mixed with the given amount of solvent and emulsifier and the concentrate is diluted to the desired concentration with water.
The active compound mixture was mixed with soil. The concentration given refers to amount of active compound per volume unit of soil (mg/l=ppm). Pots are filled with the treated earth and planted with a cotton plant (Gossypium hirsutum). After one week the plants are infected with the cotton aphid (Aphis gossypii).
(§2) After the desired time the death rate in % is determined. Here 100% means that all aphids were killed; 0% means that no aphids were killed.

[2] = system: larvae of the corn root worm (Diabrotica balteata); experiment: Diabrotica balteata larvae test (soil application); conditions: 8 ppm in soil, maize
Protocol: as §1
The active compound mixture was mixed with soil. The concentration given refers to amount of active compound per volume unit of earth (mg/l=ppm). Pots are filled with the treated earth and planted with 5 maize seeds per pot. 3 days after seeding larvae of the corn root worm (Diabrotica balteata) were placed in the treated soil.
After the desired time the death rate in % is determined. The level of activity is determined by the number of emerging plants

[3] = system: onion thrips (Thrips tabaci); experiment: Thrips tabaci test, open land (spray treatment); conditions: 300 g/ha, spray on onions
Protocol: (§3) To prepare a suitable active compound preparation 1 part by weight of the active compound is mixed with the given amount of water to the desired concentration.
Onions (Allium cepa) that are infested with all stages of the onion thrips (Thrips tabaci) are sprayed with an active compound preparation at the desired concentration.
After the desired time the death rate in % is determined. Here 100% means that all thrips were killed; 0% means that no thrips were killed.

[4] = system: termites (Odontotermes sp.); experiment: Odontotermes test, open land (spray treatment); conditions: 240 g/ha, spray on obeche wood
Protocol: as §3
Areas of wood of the obeche tree (Triplochiton scleroxylon) are treated by spraying with the active compound preparation at the desired concentration and infected with termites (Odontotermes sp.).
After the desired time the activity in % is determined. Here 100% means that the wood was not infested by termites; 0% means that the wood was infested by termites.

[5] = system: white fly (Bemisia tabaci) eggs and larvae; experiment: Bemisia tabaci test, treated soil (Example Z); conditions: 4 ppm in soil, cotton plant
Protocol: as §1
The active compound preparation is mixed with earth. The concentration given relates to the amount of active compound per volume unit soil (mg/l=ppm). The treated earth is filled into pots and planted with a cotton plant (Gossypium hirsutum). After a week infection is carried out with white fly (Bemisia tabaci) for egg deposition.
After the desired time the death rate of eggs and larvae, respectively, in % is determined. Here 100% means that all animals were killed; 0% means that no animals that were killed.

[6] = system: codling moth larvae (Cydia pomonella); experiment: Cydia pomonella test, treated feed; conditions: 20 ppm in feed
Protocol: as §1
The active compound preparation was mixed with feed. The concentration given relates to the amount of active compound per unit volume feed (mg/l=ppm). The treated feed is placed in Petri dishes and infected with codling moth larvae (Cydia pomonella).
After the desired time the death rate in % is determined. Here 100% means that all larvae were killed; 0% means that no larvae were killed.

[7] = system: cotton aphid (Aphis gossypii); experiment: Aphis gossypii test (seed application); conditions: 4 g ai/ha, cotton seed treatment
Protocol: as §1
Cotton seeds (Gossypium hirsutum) are treated with the active compound preparation and sown into soil. After ca. 2 week the cotton plants are infected with the cotton aphid (Aphis gossypii). After the desired time the death rate in % is determined. Here 100% means that all aphids were killed; 0% means that no aphids were killed.

[8] = system: mealy cabbage aphid (Brevicoryne brassicae); experiment: Brevicoryne brassicae test, open land (drench application); conditions: 0.04 g/plant, drench on cabbage plants
Protocol: as §3
Cabbage plants (Brassica oleracea) that are infested with all stages of the mealy cabbage aphid (Brevicoryne brassicae) are drenched with an active compound preparation at the desired concentration.
as §2

[9] = system: white fly (Bemisia tabaci), all stages; experiment: Bemisia tabaci test, open land (spray treatment); conditions: 300 g/ha, spray on paprika plants
Protocol: as §3
Paprika plants (Capsicum annuum) that are infested with all stages of the white fly (Bemisia tabaci) are sprayed with an active compound preparation at the desired concentration.
After the desired time the death rate in % is determined. Here 100% means that all white fly were killed; 0% means that no white fly were killed.

[10] = system: green peach aphid (Myzus persicae); experiment: Myzus persicae test (soil application); conditions: 4 ppm in soil, pepper plant
Protocol: as §1
The active compound mixture was mixed with soil. The concentration given refers to amount of active compound per volume unit of earth (mg/l=ppm). Pots are filled with the treated earth and planted with a pepper plant (Capsicum annuum). After a week they are infected with the green peach aphid (Myzus persicae).
as §2

[11] = system: caterpillars of the fall army worm (Spodoptera frugiperda); experiment: Spodoptera frugiperda test (spray treatment); conditions: 500 g/ha; spray on maize leaf sections; after 7 d
Protocol: (§4) To prepare a suitable active compound preparation 1 part by weight of the active compound is mixed with the given amount of solvent and emulsifier and the concentrate is diluted to the desired concentration with water containing emulsifier.
Maize leaf sections (Zea mays) are sprayed with an active compound preparation at the desired concentration and after drying treated with caterpillars of the fall army worm (Spodoptera frugiperda).
After the desired time the activity in % is determined. Here 100% means that all caterpillars were killed; 0% means that no caterpillars were killed.

[12] = system: bird cherry-oat aphid (Rhopalosiphon padi); experiment: Rhopalosiphon padi test (seed application); conditions: 1.4 g ai/kg, barley seed treatment
Protocol: as §1
Barley seed (Hordeum vulgare) is treated with the active compound preparation and sown into the soil. After about 1 week the barley plants are infected with the bird cherry-oat aphid (Rhopalosiphon padi).
as §2

[13] = system: mealy cabbage aphid (Brevicoryne brassicae); experiment: Brevicoryne brassicae test, open land (spray treatment), Example J1; conditions: 300 g/ha, spray on cabbage plants
Protocol: as §3
Cabbage plants (Brassica oleracea) that are infested with all stages of the mealy cabbage aphid (Brevicoryne brassicae) are sprayed with an active compound preparation at the desired concentration.
as §2

[14] = system: adults of the Colorado beetle (Leptinotarsa decemlineata); experiment: Leptinotarsa decemlineata adults test; conditions: 60 g/ha, spray on potato leaves
Protocol: as §4
Leaves of potato plant (Solanum tuberosum) that are infested with adults of the Colorado beetle, (Leptinotarsa decemlineata) are treated by spraying with the active compound at the desired concentration.
After the desired time the activity in % is determined. Here 100% means that all beetles were killed; 0% means that no beetles were killed.

[15] = system: green leaf hopper (Nephotettix sp.); experiment: Nephotettix sp. test, open land (spray treatment); conditions: 300 g/ha, spray on rice plants
Protocol: as §3
Rice plants (Oryza sativa) that are infested with all stages of the green leaf hopper (Nephotettix sp.) are sprayed with an active compound preparation at the desired concentration.
After the desired time the death rate in % is determined. Here 100% means that all leaf hoppers were killed; 0% means that no leaf hoppers were killed.

CN(Cc1ccc(Cl)nc1)C1=CC(=O)OC1 [Compound 84]
Activity in % after 7 d [1]: 100% | Activity in % after 4 d [2]: 100% | death rate after 14 days [3]: 89% | activity after 45 days ([4]; after 45 days): 99% | death rate after 14 days [5]: 100% | death rate after 7 days [6]: 100% | Activity in % after 7 d [7]: 100% | death rate after 35 days [8]: 100% | death rate after 65 days [9]: 93% | Activity in % after 7 d [10]: 100% | Death rate in % after 7 d [11]: 100% | Activity in % after 7 d [12]: 100% | death rate after 22 days [13]: 99% | activity after 7 days [14]: 100% | death rate after 15 days [15]: 98%

O=C1C=C(N(Cc2ccc(Cl)nc2)C2CC2)CO1 [Compound 88]
Activity in % after 7 d [1]: 100% | Activity in % after 4 d [2]: 90% | death rate after 14 days [3]: 98% | activity after 65 days ([4]; after 65 days): 95% | death rate after 14 days [5]: 100% | death rate after 7 days [6]: 90% | Activity in % after 7 d [7]: 100% | death rate after 35 days [8]: 97% | death rate after 65 days [9]: 93% | Activity in % after 7 d [10]: 100% | Death rate in % after 7 d [11]: 100% | Activity in % after 7 d [12]: 100% | death rate after 22 days [13]: 99% | activity after 7 days [14]: 100% | death rate after 15 days [15]: 99%
